Experimental data published in BigSolDB 2.1.

For `C(=C\c1ccccc1)/CN1CCN(C(c2ccccc2)c2ccccc2)CC1`, the solubility (mole fraction) (in acetonitrile, 288.5 K) was 0.000877, the solubility (mole fraction) (in acetonitrile, 293.5 K) was 0.00105 and the solubility (mole fraction) (in acetonitrile, 298.4 K) was 0.00137. The solubility (mole fraction) (in acetonitrile, 303.3 K) was 0.00158, the solubility (mole fraction) (in acetonitrile, 308.3 K) was 0.00204 and the solubility (mole fraction) (in acetonitrile, 313.2 K) was 0.00273. For the same compound, the solubility (mole fraction) (in isopropanol, 288.5 K) was 0.00064, the solubility (mole fraction) (in isopropanol, 293.5 K) was 0.000811 and the solubility (mole fraction) (in isopropanol, 298.4 K) was 0.000994. The solubility (mole fraction) (in isopropanol, 303.3 K) was 0.00127, the solubility (mole fraction) (in isopropanol, 308.3 K) was 0.00165 and the solubility (mole fraction) (in isopropanol, 313.2 K) was 0.00208. For the same compound, the solubility (mole fraction) (in n-butanol, 288.5 K) was 0.00273, the solubility (mole fraction) (in n-butanol, 293.5 K) was 0.00351 and the solubility (mole fraction) (in n-butanol, 298.4 K) was 0.00412. For the same compound, the solubility (mole fraction) (in n-butanol, 303.3 K) was 0.00499, the solubility (mole fraction) (in n-butanol, 308.3 K) was 0.00607 and the solubility (mole fraction) (in n-butanol, 313.2 K) was 0.00804. For the same compound, the solubility (mole fraction) (in n-butyl acetate, 288.5 K) was 0.0153, the solubility (mole fraction) (in n-butyl acetate, 293.5 K) was 0.0197 and the solubility (mole fraction) (in n-butyl acetate, 298.4 K) was 0.0226. It also gave a solubility (mole fraction) (in n-butyl acetate, 303.3 K) of 0.0272, a solubility (mole fraction) (in n-butyl acetate, 308.3 K) of 0.0337 and a solubility (mole fraction) (in n-butyl acetate, 313.2 K) of 0.0425.
